The values below come from patent US5530133A, “7'-amino-naphthazarin antibiotic derivatives” (Gruppo Lepetit SpA, priority 1995, dated 1996).

In experiment [1] the test system is Gram-positive and Gram-negative bacteria and fungi. The note with it: according to U.S. Pat. No. 3,914,257; fungi incl. Trichophyton mentagrophytes and Candida albicans; cited from earlier work.
Experiment [2] concerns Trichomonas vaginalis (clin. isol.). Put plainly: MIC by broth dilution, Trichomonas vaginalis. As to conditions: code TVL; approx. 10^5 cells/ml; Trichomonas Culture Medium Base + 10% horse serum; 48 h, 37° C. Type of experiment: cell-based. Here is the method: Inocula were approximately 10^4 cfu. Incubation was for 48 hours at 37° C. in nitrogen-carbon dioxide-hydrogen (80:10:10). […] The inoculum was approximately 10^5 cells/ml. After 48 hours of incubation at 37° C. in nitrogen-carbon dioxide-hydrogen (80:10:10) the wells were viewed directly with a microscope to detect the presence of viable (motile) protozoa.
(Broth dilution looks for growth in wells or tubes with falling amounts of substance.)

Experiment [3] concerns Gardnerella vaginalis ATCC 14018. Description: MIC by agar dilution, Gardnerella vaginalis. Type of experiment: cell-based. As to conditions: code 332; Casman medium + rabbit blood; approx. 10^4 cfu; 48 h, 37° C. (In agar dilution the substance is mixed into plates at graded concentrations.)

Turning to `COC(=O)c1cc2cc3c(c(O)c2c(=O)o1)OC1(Cc2c(O)c4c(c(O)c2O1)C(=O)C(OC)=CC4=O)CC3O` (stereo not shown) [purpuromycin], the “in vitro antimicrobial activity” value in experiment [1] was “active in vitro against both Gram-positive and Gram-negative bacteria and fungi”.

As to `CCNC1=CC(=O)c2c(O)c3c(c(O)c2C1=O)OC1(C3)CC(O)c2cc3cc(C(=O)OC)oc(=O)c3c(O)c2O1` (stereo not shown) [Example 10, 7'-ethylamino purpuromycin], the MIC was found to be 8 µg/mL in experiment [2] and 2 µg/mL in experiment [3]. With `CNC1=CC(=O)c2c(O)c3c(c(O)c2C1=O)OC1(CCc2cc4cc(C(=O)OC)oc(=O)c4c(O)c2O1)C3` (stereo not shown) [Example 32, 7'-methylamino γ-rubromycin], in experiment [2], the MIC came to 2 µg/mL.

By MIC is commonly meant the smallest concentration in the dilution series that meets the test's criterion for growth inhibition.
